Here are results for 2 compounds from patent US11420947B2, “(S)-n-hydroxy-2-(2-(4-methoxyphenyl)butanamido)thiazole-5-carboxamide and pharmaceutically acceptable salts thereof” (TRANSLATIONAL DRUG DEVELOPMENT, LLC, priority 2018, dated 2022).

Broadly, the IC50 is the midpoint of a concentration-inhibition curve.

Common to all, as to type: biochemical
One test concerns the target T1, HDAC7 (Homo sapiens, UniProt Q8WUI4).
T1 construct: made in house
Description: Inhibition of HDAC enzymes, 12-point concentration-response. The method, then: (§1) Compounds were tested in a 12-point concentration-response format against 11 HDAC enzymes as outlined in Table 2A. Test compounds were diluted in 100% DMSO using 3-fold dilution steps. The final compound concentration in the assay ranged from 100 μM to 0.565 nM or as requested. Compounds were tested in a single well for each dilution, and the final concentration of DMSO in all assays was kept at 1%. Reference compounds were tested in an identical manner.

A further test addresses T2, HDAC10 (Homo sapiens, UniProt Q969S8).
T2 construct: made in house
T2 sequence (Q969S8 1-669): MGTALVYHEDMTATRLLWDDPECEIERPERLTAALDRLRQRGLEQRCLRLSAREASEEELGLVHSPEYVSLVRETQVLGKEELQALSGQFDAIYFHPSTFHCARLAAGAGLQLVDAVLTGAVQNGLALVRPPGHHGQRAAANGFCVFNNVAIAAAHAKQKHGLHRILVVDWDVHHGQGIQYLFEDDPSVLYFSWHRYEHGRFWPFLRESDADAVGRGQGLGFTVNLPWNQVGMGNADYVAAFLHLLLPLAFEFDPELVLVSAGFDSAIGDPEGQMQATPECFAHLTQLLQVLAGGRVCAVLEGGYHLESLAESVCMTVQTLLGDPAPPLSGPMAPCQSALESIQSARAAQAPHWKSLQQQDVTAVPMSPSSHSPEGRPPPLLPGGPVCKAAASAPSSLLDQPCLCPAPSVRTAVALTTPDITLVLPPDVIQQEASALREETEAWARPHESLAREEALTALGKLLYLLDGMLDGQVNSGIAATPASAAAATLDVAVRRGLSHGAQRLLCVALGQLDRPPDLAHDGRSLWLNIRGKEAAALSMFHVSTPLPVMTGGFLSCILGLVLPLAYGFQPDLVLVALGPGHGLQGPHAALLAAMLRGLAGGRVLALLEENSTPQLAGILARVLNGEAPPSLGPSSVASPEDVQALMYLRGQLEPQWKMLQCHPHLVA
The description is as above. As to conditions: for IC50: HDAC10. The protocol: as §1

A further test concerns the target T3, HDAC1 (Homo sapiens, UniProt Q13547).
T3 construct: purchased BPS 50051
The test is described as above. The protocol: as §1

Another test concerns the target T4, HDAC5 (Homo sapiens, UniProt Q9UQL6).
T4 construct: purchased BPS 50045
The description is as above. The method, then:
as §1

The target in another test is T5, HDAC2 (Homo sapiens, UniProt Q92769).
T5 construct: purchased BPS 50002
T5 sequence (Q92769 whole entry): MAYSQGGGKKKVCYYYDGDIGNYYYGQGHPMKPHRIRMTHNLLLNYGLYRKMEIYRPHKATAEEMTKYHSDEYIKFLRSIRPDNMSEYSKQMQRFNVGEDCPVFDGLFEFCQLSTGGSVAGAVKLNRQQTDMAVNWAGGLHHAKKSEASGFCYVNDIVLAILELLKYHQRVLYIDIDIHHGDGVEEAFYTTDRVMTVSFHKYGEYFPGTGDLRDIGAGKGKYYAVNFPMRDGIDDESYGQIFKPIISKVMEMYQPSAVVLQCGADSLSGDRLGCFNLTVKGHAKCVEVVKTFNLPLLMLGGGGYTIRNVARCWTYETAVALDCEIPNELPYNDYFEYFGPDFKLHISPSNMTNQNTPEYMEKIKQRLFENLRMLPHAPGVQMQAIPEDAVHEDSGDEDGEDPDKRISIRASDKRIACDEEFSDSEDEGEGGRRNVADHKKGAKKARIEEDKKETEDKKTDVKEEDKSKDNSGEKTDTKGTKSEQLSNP
The description is as above. The protocol: as §1

The next test concerns the target T6, HDAC11 (Homo sapiens, UniProt Q96DB2).
T6 construct: made in house
The description is as above. The protocol:
as §1

A further test has as its target T7, HDAC3 (Homo sapiens, UniProt O15379).
T7 construct: purchased BPS 50003
The description is as above. The note with it: for IC50: HDAC3. The protocol: as §1

In another test the target is T8, HDAC4 (Homo sapiens, UniProt P56524).
T8 construct: made in house
T8 sequence (P56524 whole entry, species assumed): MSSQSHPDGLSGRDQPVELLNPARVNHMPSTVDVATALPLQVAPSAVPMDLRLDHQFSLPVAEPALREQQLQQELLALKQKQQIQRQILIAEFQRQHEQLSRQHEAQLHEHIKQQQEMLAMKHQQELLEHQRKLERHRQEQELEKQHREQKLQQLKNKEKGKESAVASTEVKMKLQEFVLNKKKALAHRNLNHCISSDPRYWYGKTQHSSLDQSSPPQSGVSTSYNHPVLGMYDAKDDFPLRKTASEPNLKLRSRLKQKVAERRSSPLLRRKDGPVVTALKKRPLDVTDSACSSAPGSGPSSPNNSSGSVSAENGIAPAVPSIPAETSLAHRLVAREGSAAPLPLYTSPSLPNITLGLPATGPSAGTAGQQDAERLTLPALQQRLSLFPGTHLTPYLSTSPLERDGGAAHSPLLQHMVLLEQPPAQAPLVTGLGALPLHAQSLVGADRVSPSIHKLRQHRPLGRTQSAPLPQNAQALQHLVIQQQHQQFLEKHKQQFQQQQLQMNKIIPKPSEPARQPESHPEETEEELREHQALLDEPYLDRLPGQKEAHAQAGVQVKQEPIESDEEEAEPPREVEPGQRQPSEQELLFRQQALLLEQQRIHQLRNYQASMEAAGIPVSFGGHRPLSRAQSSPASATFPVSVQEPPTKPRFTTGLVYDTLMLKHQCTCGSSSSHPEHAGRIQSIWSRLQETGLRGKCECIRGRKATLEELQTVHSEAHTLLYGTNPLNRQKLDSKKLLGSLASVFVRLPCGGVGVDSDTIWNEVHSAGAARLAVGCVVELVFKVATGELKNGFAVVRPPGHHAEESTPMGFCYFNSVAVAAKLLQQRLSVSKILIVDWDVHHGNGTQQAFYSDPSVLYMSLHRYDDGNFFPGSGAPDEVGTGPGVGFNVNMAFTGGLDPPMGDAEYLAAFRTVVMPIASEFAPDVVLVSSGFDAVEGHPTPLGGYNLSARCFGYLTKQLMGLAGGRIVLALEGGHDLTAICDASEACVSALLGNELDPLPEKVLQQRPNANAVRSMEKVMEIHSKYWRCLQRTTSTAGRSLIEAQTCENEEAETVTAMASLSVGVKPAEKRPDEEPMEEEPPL
The description is as above. The protocol: as §1

Test [1] concerns the target T9, HDAC6 (Homo sapiens, UniProt Q9UBN7).
T9 sequence (Q9UBN7 1-1215): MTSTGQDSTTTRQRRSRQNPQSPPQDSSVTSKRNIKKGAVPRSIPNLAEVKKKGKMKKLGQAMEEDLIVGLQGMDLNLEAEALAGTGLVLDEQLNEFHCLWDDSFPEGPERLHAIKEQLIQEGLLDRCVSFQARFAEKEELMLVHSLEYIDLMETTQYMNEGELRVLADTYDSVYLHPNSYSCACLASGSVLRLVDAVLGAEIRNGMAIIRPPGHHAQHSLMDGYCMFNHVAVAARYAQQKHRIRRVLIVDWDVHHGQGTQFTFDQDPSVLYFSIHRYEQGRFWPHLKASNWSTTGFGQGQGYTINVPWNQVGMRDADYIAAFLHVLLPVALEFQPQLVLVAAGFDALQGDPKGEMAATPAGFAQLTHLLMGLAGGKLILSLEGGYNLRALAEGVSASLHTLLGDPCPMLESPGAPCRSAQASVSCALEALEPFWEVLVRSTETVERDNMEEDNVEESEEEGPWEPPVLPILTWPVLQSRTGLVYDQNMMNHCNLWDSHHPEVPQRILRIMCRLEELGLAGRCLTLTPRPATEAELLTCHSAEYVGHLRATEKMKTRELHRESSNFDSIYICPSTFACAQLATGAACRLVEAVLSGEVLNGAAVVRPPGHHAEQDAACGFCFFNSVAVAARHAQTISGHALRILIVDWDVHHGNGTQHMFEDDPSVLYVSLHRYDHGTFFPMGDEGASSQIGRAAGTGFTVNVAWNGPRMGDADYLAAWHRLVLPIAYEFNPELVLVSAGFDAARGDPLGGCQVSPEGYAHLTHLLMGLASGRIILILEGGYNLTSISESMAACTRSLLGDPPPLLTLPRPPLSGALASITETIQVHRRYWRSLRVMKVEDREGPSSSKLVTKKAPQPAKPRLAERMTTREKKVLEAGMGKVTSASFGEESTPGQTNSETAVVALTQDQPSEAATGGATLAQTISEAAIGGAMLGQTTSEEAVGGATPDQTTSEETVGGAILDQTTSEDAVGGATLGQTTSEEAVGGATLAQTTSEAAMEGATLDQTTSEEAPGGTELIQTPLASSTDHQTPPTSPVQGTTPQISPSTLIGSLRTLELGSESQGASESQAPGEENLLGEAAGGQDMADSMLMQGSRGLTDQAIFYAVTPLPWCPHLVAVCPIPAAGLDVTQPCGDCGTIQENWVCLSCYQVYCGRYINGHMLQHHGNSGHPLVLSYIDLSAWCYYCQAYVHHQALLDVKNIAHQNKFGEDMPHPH
Description: Determination of Koff kinetics against HDAC6 protein. As to conditions: for residence time: 100 nM HDAC6 pre-incubated with 0.120 μM compound for 3 hr, diluted 200×, Ln(2)/Kobs, read-out: residence time for binding to HDAC6. The protocol:
The disassociation rate for #1a (FIG. 3) or #1b (FIG. 4) was determined by pre-incubating 100 nM HDAC6 protein with 0.120 μM compound #1a, #1b, or DMSO for 3 hr. After pre-incubation, the compound-enzyme complex was diluted (200×) into an assay buffer with substrate peptide. Progress curves for ˜8 hrs were observed using Labchip3000 instrument. Progress curve after pre-incubation with compound (blue) was fit with following equation: ((A+(Vs*x))+(((Vo−Vs)*(1−exp(((−1)*Kobs)*t)))/Kobs)), to determine observed rate of dissociation. Residence time was determined as Ln(2)/Kobs.

Test [2] concerns the target T9, HDAC6. The test is described as follows: Inhibition of HDAC enzymes, 12-point concentration-response. As to conditions: for IC50: HDAC6. More on the design: made in house. The protocol:
as §1

SMILES strings stand for the structures.

T7 sequence (O15379 whole entry): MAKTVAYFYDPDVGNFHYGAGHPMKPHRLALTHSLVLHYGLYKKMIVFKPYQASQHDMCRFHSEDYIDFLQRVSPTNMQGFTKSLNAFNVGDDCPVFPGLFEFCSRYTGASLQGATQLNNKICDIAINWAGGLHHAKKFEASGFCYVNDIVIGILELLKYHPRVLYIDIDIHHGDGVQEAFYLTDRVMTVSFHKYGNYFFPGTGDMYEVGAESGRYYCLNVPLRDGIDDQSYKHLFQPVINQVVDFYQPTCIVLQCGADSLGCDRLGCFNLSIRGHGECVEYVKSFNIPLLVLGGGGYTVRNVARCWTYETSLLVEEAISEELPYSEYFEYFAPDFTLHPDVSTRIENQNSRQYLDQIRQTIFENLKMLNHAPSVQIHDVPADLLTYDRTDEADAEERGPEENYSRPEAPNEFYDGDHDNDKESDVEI
T7 sequence (Q9Y618 395-489 partner limits assumed): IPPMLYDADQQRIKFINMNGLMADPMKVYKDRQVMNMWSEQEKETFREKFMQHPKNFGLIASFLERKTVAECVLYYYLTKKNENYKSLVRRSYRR
T3 sequence (Q13547 whole entry): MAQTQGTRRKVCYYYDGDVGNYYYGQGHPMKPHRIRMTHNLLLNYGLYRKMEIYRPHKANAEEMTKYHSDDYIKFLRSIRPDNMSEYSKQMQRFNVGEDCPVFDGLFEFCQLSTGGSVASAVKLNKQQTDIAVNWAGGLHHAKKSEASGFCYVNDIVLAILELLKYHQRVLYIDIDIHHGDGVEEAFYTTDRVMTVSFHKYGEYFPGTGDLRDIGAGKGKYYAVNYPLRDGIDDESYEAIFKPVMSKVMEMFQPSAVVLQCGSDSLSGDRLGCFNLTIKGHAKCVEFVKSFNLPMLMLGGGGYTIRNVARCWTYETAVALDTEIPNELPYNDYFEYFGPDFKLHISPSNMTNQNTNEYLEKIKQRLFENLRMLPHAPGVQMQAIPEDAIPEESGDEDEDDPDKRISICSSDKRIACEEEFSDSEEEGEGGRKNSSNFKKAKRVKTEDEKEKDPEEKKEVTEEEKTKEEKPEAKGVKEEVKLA
T6 sequence (Q96DB2 whole entry, species assumed): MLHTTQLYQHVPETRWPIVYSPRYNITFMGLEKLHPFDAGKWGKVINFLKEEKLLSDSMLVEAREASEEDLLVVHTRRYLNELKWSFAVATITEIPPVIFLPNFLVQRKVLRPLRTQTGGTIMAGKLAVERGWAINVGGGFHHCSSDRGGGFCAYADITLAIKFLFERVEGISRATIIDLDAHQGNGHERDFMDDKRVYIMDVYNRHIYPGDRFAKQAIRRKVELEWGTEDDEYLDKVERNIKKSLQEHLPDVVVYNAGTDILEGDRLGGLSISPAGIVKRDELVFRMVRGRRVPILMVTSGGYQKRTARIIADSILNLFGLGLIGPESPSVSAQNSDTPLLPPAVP
T4 sequence (Q9UQL6 whole entry): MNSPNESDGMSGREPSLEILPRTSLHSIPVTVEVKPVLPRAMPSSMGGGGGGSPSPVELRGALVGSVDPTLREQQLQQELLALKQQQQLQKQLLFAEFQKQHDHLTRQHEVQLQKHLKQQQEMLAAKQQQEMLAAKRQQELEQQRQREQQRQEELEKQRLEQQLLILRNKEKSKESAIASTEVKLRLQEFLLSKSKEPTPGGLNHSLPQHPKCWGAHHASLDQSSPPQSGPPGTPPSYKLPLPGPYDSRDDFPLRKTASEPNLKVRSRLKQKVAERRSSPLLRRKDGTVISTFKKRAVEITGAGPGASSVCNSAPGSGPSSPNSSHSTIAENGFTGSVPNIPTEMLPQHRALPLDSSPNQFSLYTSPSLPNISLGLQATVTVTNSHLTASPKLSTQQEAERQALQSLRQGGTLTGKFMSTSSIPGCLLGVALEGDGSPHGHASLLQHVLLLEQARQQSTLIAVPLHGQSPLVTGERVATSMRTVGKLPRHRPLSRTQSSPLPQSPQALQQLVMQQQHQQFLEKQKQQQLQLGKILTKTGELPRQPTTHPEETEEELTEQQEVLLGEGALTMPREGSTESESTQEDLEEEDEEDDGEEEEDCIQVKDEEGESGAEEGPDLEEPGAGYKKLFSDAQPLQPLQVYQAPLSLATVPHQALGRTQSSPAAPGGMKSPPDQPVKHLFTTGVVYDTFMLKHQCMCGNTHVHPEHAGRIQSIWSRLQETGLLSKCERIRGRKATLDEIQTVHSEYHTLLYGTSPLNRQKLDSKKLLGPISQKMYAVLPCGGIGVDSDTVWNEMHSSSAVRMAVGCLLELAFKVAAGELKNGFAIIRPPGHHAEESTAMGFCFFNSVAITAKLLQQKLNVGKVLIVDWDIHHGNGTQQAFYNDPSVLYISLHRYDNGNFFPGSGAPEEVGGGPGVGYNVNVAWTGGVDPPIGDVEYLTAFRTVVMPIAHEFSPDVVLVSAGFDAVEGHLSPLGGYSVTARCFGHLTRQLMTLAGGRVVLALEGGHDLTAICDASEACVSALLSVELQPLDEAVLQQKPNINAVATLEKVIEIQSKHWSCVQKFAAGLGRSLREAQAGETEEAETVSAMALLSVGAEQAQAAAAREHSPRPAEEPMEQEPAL
T1 sequence (Q8WUI4 whole entry): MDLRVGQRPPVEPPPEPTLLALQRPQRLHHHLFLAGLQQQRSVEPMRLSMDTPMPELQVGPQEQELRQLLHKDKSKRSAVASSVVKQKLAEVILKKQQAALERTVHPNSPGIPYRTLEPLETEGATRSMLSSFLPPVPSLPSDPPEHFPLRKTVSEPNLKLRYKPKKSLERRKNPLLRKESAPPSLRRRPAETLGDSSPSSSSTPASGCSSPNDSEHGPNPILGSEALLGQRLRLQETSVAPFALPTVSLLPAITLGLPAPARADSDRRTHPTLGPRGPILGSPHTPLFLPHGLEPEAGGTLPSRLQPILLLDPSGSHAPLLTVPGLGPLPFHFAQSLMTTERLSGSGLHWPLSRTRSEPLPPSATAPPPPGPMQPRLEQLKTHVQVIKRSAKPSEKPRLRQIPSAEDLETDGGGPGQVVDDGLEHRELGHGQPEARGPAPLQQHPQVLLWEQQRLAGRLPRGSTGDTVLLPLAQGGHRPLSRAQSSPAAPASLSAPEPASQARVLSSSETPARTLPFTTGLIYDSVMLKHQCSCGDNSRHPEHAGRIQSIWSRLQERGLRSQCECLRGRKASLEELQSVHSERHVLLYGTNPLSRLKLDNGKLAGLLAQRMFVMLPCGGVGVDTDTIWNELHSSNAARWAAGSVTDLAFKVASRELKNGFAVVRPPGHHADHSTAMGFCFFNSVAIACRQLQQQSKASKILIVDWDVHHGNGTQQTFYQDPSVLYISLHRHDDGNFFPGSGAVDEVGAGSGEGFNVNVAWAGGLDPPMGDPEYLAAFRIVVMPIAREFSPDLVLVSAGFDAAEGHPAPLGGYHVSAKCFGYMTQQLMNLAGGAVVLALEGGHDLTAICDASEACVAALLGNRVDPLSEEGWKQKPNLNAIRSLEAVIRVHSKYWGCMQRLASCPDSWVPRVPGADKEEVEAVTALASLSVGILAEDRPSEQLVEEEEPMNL

Consider `CC[C@H](C(=O)Nc1ncc(C(=O)NO)s1)c1ccc(OC)cc1` [#1a, (S)—N-hydroxy-2-(2-(4-methoxyphenyl)butanamido)thiazole-5-carboxamide], for which the “Fold (1b/1a)” value is 3.4 at HDAC7 (ratio of IC50, HDAC7); 7.3 at HDAC10 (ratio of IC50, HDAC10); 7.8 at HDAC1 (ratio of IC50, HDAC1); 1.4 on HDAC5 (ratio of IC50, HDAC5); 6.9 at HDAC2 (ratio of IC50, HDAC2); 0.73 on HDAC11 (ratio of IC50, HDAC11). Further, the “Fold (1b/1a)” value at HDAC3 (ratio of IC50, HDAC3) stood at 4.6; on HDAC4 (ratio of IC50, HDAC4), 1.2; on HDAC6 [2] (ratio of IC50, HDAC6), 1.5. For the same compound, the IC50 is 0.002 µM against HDAC10, less than 0.00056 µM at HDAC3 and 0.00071 µM against HDAC6 [2]. For the same compound, the residence time on HDAC6 [1] stood at 1920 min. Besides, at HDAC6 [1] (HDAC6), the “binding to HDAC6 (in words)” value is listed as “very tightly bound inhibitor of HDAC6”. Also, at HDAC6 [1] (HDAC6), the “increase in residence time compared to #1b” value is reported as 55 fold.
With `CC[C@@H](C(=O)Nc1ncc(C(=O)NO)s1)c1ccc(OC)cc1` [#1b, (R)—N-hydroxy-2-(2-(4-methoxyphenyl)butanamido)thiazole-5-carboxamide], the IC50 was found to be 0.118 µM against HDAC7 (HDAC7); 0.0146 µM on HDAC10; 0.0078 µM against HDAC1 (HDAC1); 0.1 µM at HDAC5 (HDAC5); 0.0365 µM on HDAC2 (HDAC2); 4.22 µM at HDAC11 (HDAC11). The IC50 amounted to 0.0026 µM on HDAC3, 0.16 µM on HDAC4 (HDAC4) and 0.0011 µM at HDAC6 [2]. For the same compound, the residence time at HDAC6 [1] was determined as 35 min.
